Experimental data: US11672788B2, “Histone deacetylase inhibitors for immunomodulation in tumor microenvironment” (GREAT NOVEL THERAPEUTICS BIOTECH & MEDICALS CORPORATION, priority 2020, dated 2023)
Entries after “also recorded” stand apart in the source; their conditions may differ.

Tests used:
[1] = target: HDAC9 (Homo sapiens (Human), UniProt Q9UKV0); experiment: HDACs 1-11 enzymatic inhibition by BPS Bioscience
Protocol: (§5) HDAC assay was performed according to standard Protocols (Fluorgenic HDACs 1-11 assay kit, BPS Bioscience™). […] After 0.5 h, assay developer was added to the samples and the absorbance was read at fluorogenic wavelength. The relative inhibition to HDACs 1, 2, 3, 4, 5, 6, 7, 8, 9, and 11 activities was determined in each sample. […] All of the compounds were dissolved in DMSO. The serial dilution of the compounds was first performed in 100% DMSO with the highest concentration at 1 mM. Each intermediate compound dilution (in 100% DMSO) would then get directly diluted 10× fold into assay buffer for an intermediate dilution of 10% DMSO in HDAC assay buffer and 5 μl of the dilution was added to a 50 μl reaction so that the final concentration of DMSO is 1% in all of the reactions. The enzymatic reactions for the HDAC enzymes were conducted in duplicate at 37° C. for 30 minutes in a 50 μl mixture containing HDAC assay buffer, 5 μg BSA, an HDAC substrate, a HDAC enzyme and a test compound. After enzymatic reactions, 50 μl of 2×HDAC Developer was added to each well for the HDAC enzymes and the plate was incubated at room temperature for an additional 15 minutes. Fluorescence intensity was measured at an excitation of 360 nm and an emission of 460 nm using a Tecan Infinite M1000 microplate reader. HDAC activity assays were performed in duplicate at each concentration. The fluorescent intensity data were analyzed using the computer software, Graphpad Prism. In the absence of the compound, the fluorescent intensity (Ft) in each data set was defined as 100% activity. In the absence of HDAC, the fluorescent intensity (Fb) in each data set was defined as 0% activity. The percent activity in the presence of each compound was calculated according to the following equation: % activity=(F−Fb)/(Ft−Fb), where F=the fluorescent intensity in the presence of the compound. […] The IC50 value was determined by the concentration causing a half-maximal percent activity.

[2] = target: HDAC5 (Homo sapiens (Human), UniProt Q9UQL6); experiment: HDACs 1-11 enzymatic inhibition by BPS Bioscience
Chain of HDAC5 (Q9UQL6 whole entry): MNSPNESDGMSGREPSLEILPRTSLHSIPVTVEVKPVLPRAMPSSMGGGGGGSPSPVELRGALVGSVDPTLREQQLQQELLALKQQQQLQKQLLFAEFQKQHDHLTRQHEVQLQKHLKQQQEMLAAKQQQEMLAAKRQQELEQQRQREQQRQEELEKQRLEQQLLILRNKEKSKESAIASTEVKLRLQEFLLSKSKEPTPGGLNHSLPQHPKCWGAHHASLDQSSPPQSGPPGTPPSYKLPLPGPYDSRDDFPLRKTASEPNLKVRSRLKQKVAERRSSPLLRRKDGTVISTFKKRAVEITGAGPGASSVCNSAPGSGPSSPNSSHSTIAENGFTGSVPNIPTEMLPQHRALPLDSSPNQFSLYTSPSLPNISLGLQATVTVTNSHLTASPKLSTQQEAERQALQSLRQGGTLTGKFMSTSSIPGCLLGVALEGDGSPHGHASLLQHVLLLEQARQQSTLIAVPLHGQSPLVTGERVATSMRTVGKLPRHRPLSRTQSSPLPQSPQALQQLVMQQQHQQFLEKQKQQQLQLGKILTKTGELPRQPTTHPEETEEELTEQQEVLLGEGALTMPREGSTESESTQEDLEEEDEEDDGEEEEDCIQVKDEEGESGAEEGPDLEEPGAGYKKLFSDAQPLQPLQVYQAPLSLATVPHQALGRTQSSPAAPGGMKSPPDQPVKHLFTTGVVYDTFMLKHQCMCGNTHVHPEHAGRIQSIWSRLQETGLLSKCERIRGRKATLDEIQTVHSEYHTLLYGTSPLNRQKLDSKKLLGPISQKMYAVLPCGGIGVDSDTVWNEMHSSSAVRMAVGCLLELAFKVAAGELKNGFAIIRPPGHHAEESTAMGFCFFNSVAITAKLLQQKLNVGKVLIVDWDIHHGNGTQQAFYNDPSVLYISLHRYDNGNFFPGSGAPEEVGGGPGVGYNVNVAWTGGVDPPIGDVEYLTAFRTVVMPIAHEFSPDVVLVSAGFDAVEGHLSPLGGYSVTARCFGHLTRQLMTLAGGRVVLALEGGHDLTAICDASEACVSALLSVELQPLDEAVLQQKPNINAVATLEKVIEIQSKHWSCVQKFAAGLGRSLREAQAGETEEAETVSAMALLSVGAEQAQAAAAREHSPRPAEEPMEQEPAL
Protocol: as §5

[3] = system: MDA-MB-453; experiment: In vitro cytotoxicity MTT assay; type: cell-based, human; settings: Homo sapiens, MDA-MB-453, 72 h, IC50 ± SD
How it was run: (§1)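 MTT read-out of cell viability at 72 h. Breast line MDA-MB-231 was plated at 6×10^3 per well, while MDA-MB-453, gastric NCI-N87 and colorectal SW48 were plated at 2.4×10^4.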

[4] = system: MDA-MB-231; experiment: In vitro cytotoxicity MTT assay; type: cell-based, human; settings: Homo sapiens, MDA-MB-231, 72 h, IC50 ± SD
How it was run: as §1

[5] = system: SW48; experiment: In vitro cytotoxicity MTT assay; type: cell-based, human; settings: Homo sapiens, SW48, 72 h, IC50 ± SD
How it was run: as §1

[6] = system: M10; experiment: In vitro cytotoxicity MTT assay; type: cell-based, human; settings: Homo sapiens, M10, 72 h, IC50 ± SD
How it was run: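 Viability is determined by MTT after 72 h of treatment, using 2.4×10^4 seeded cells for SW48, NCI-N87 and MDA-MB-453 and 6×10^3 for MDA-MB-231.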

[7] = target: HDAC2 (Homo sapiens (Human), UniProt Q92769); experiment: HDACs 1-11 enzymatic inhibition by BPS Bioscience
Chain of HDAC2 (Q92769 whole entry): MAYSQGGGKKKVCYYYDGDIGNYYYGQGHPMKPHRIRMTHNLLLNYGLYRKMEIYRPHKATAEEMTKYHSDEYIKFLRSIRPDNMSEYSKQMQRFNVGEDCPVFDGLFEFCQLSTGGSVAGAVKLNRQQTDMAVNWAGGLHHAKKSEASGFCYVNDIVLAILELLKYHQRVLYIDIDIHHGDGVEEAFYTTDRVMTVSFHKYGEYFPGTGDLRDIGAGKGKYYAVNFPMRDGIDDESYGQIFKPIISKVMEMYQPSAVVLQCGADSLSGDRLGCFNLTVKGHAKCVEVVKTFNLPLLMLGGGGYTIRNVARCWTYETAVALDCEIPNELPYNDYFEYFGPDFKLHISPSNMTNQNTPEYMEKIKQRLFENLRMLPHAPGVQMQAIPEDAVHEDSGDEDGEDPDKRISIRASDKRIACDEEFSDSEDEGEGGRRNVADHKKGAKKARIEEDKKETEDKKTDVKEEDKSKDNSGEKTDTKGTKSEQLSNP
Protocol: (§6) HDAC assay was performed according to standard Protocols (Fluorgenic HDACs 1-11 assay kit, BPS Bioscience™). […] After 0.5 h, assay developer was added to the samples and the absorbance was read at fluorogenic wavelength. The relative inhibition to HDACs 1, 2, 3, 4, 5, 6, 7, 8, 9, and 11 activities was determined in each sample. […] All of the compounds were dissolved in DMSO. The serial dilution of the compounds was first performed in 100% DMSO with the highest concentration at 1 mM. Each intermediate compound dilution (in 100% DMSO) would then get directly diluted 10× fold into assay buffer for an intermediate dilution of 10% DMSO in HDAC assay buffer and 5 μl of the dilution was added to a 50 μl reaction so that the final concentration of DMSO is 1% in all of the reactions. […] Fluorescence intensity was measured at an excitation of 360 nm and an emission of 460 nm using a Tecan Infinite M1000 microplate reader. […] The fluorescent intensity data were analyzed using the computer software, Graphpad Prism. […] The percent activity in the presence of each compound was calculated according to the following equation: % activity=(F−Fb)/(Ft−Fb), where F=the fluorescent intensity in the presence of the compound. […] The IC50 value was determined by the concentration causing a half-maximal percent activity.

[8] = target: HDAC11 (Homo sapiens (Human), UniProt Q96DB2); experiment: HDACs 1-11 enzymatic inhibition by BPS Bioscience
Chain of HDAC11 (Q96DB2 whole entry): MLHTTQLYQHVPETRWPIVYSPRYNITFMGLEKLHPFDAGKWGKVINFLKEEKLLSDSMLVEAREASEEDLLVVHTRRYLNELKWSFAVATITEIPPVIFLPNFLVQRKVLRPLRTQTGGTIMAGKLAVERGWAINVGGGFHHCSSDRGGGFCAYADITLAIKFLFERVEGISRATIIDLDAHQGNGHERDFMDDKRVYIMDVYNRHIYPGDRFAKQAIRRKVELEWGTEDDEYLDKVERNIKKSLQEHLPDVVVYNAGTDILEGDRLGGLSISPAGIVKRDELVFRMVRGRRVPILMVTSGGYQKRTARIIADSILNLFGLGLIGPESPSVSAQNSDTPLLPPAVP
Protocol: HDAC assay was performed according to standard Protocols (Fluorgenic HDACs 1-11 assay kit, BPS Bioscience™). […] After 0.5 h, assay developer was added to the samples and the absorbance was read at fluorogenic wavelength. The relative inhibition to HDACs 1, 2, 3, 4, 5, 6, 7, 8, 9, and 11 activities was determined in each sample. […] All of the compounds were dissolved in DMSO. The serial dilution of the compounds was first performed in 100% DMSO with the highest concentration at 1 mM. Each intermediate compound dilution (in 100% DMSO) would then get directly diluted 10× fold into assay buffer for an intermediate dilution of 10% DMSO in HDAC assay buffer and 5 μl of the dilution was added to a 50 μl reaction so that the final concentration of DMSO is 1% in all of the reactions. The enzymatic reactions for the HDAC enzymes were conducted in duplicate at 37° C. for 30 minutes in a 50 μl mixture containing HDAC assay buffer, 5 μg BSA, an HDAC substrate, a HDAC enzyme and a test compound. After enzymatic reactions, 50 μl of 2×HDAC Developer was added to each well for the HDAC enzymes and the plate was incubated at room temperature for an additional 15 minutes. Fluorescence intensity was measured at an excitation of 360 nm and an emission of 460 nm using a Tecan Infinite M1000 microplate reader. HDAC activity assays were performed in duplicate at each concentration. The fluorescent intensity data were analyzed using the computer software, Graphpad Prism. In the absence of the compound, the fluorescent intensity (Ft) in each data set was defined as 100% activity. In the absence of HDAC, the fluorescent intensity (Fb) in each data set was defined as 0% activity. The percent activity in the presence of each compound was calculated according to the following equation: % activity=(F−Fb)/(Ft−Fb), where F=the fluorescent intensity in the presence of the compound. The values of % activity versus a series of compound concentrations were then plotted using non-linear regression analysis of Sigmoidal dose-response curve generated with the equation Y=B+(T−B)/1+10((Log EC50−X)×Hill Slope), where Y=percent activity, B=minimum percent activity, T=maximum percent activity, X=logarithm of compound and Hill Slope=slope factor or Hill coefficient. The IC50 value was determined by the concentration causing a half-maximal percent activity.

[9] = system: NCI-N87; experiment: In vitro cytotoxicity MTT assay; type: cell-based; settings: Homo sapiens, 72 h, IC50 ± SD
How it was run: as §1

[10] = system: SK-BR-3; experiment: In vitro cytotoxicity MTT assay; type: cell-based; settings: Homo sapiens, 72 h, IC50 ± SD
How it was run: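 Plated 96-well (MDA-MB-231 6×10^3; others 2.4×10^4); treated 72 h; MTT.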

[11] = target: HDAC6 (Homo sapiens (Human), UniProt Q9UBN7); experiment: HDACs 1-11 enzymatic inhibition by BPS Bioscience
Protocol: as §5

[12] = target: HDAC3/NCOR2 (Homo sapiens (Human), UniProt O15379); experiment: HDACs 1-11 enzymatic inhibition by BPS Bioscience
Chain of HDAC3/NCOR2 (O15379 whole entry): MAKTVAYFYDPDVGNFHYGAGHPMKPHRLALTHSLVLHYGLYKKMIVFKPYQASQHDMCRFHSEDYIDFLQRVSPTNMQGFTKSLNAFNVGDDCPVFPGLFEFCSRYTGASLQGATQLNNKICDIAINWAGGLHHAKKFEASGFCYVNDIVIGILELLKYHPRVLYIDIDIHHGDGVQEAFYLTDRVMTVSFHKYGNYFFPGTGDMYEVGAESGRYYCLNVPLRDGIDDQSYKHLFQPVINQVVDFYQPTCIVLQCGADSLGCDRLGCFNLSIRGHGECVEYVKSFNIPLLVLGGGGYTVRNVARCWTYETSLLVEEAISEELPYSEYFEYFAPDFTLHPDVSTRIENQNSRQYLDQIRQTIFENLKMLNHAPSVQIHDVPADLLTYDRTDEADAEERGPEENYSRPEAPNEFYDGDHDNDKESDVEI
Chain of HDAC3/NCOR2 (Q9Y618 395-489 partner): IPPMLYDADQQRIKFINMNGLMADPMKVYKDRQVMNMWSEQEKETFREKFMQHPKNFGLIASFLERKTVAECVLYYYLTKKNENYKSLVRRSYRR
Protocol: as §6

[13] = target: HDAC8 (Homo sapiens (Human), UniProt Q9BY41); experiment: HDACs 1-11 enzymatic inhibition by BPS Bioscience
Chain of HDAC8 (Q9BY41 whole entry): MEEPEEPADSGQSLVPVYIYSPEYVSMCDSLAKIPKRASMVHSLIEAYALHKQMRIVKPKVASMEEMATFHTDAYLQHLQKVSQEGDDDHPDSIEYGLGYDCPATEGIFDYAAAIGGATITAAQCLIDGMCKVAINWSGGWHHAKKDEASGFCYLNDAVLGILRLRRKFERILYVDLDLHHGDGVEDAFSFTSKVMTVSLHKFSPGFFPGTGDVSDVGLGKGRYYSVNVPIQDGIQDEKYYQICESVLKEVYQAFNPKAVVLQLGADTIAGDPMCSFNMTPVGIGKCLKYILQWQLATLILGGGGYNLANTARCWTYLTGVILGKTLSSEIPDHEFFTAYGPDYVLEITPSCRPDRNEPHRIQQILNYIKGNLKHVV
Protocol: as §5

[14] = system: M10 cells; experiment: Cell proliferation and morphology by phase-contrast light microscopy; type: cell-based, human; settings: M10, 12.5 μM
Text: (§2) (FIG. 3A) MDA-MB-231 cells, (FIG. 3B) SW48 cells, (FIG. 3C) M10 cells.

[15] = system: MDA-MB-231 cells; experiment: as above; type: cell-based, human; settings: MDA-MB-231, 12.5 μM, 72 h
Text: as §2

[16] = system: SW48 cells; experiment: as above; type: cell-based, human; settings: SW48, 3.125 μM, 72 h
Text: as §2

[17] = target: HDAC1 (Homo sapiens (Human), UniProt Q13547); experiment: HDACs 1-11 enzymatic inhibition by BPS Bioscience
Protocol: as §6

[18] = system: histone H3 acetylation (AcH3) in MDA-MB-231 cells; experiment: Western blot of histone H3 acetylation; type: cell-based, human; settings: MDA-MB-231, 1.0 μM
How it was run: (§3)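 MDA-MB-231 and SW48 cells in L-15 with 10% FCS were treated at indicated doses for 24 h or over a time course. RIPA lysates were immunoblotted for acetylated histone H3 with β-actin as loading control, using ECL detection.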

[19] = system: histone H3 acetylation (AcH3) in SW48 cells; experiment: Western blot of histone H3 acetylation; type: cell-based, human; settings: SW48, 1.0 μM, 2-72 h
How it was run: as §3

[20] = system: M10 cells; experiment: Cell cycle arrest by PI flow cytometry; type: cell-based, human; settings: M10, 12.5 μM, 72 h
Protocol: (§4) A PI/RNase staining assay (BD Bioscience™) was performed to reveal the presence of cell cycle arrest and apoptotic cells after treatment with GNTbm compounds, Chidamide and Entinostat. […] After treatment cells were harvested, fixed with 80% ethanol for 24 h, washed with 1×PBS and stained with PI/RNase for 15 min at room temperature. The cells were then analyzed using Flow Cytometer within 1 h.

[21] = system: MDA-MB-231 cells; experiment: Cell cycle arrest by PI flow cytometry; type: cell-based, human; settings: MDA-MB-231, 3.125 μM, 72 h
Protocol: as §4

[22] = system: SW48 cells; experiment: Cell cycle arrest by PI flow cytometry; type: cell-based, human; settings: SW48, 3.125 μM, 72 h
Protocol: as §4

[23] = target: HDAC4 (Homo sapiens (Human), UniProt P56524); experiment: HDACs 1-11 enzymatic inhibition by BPS Bioscience
Chain of HDAC4 (P56524 whole entry): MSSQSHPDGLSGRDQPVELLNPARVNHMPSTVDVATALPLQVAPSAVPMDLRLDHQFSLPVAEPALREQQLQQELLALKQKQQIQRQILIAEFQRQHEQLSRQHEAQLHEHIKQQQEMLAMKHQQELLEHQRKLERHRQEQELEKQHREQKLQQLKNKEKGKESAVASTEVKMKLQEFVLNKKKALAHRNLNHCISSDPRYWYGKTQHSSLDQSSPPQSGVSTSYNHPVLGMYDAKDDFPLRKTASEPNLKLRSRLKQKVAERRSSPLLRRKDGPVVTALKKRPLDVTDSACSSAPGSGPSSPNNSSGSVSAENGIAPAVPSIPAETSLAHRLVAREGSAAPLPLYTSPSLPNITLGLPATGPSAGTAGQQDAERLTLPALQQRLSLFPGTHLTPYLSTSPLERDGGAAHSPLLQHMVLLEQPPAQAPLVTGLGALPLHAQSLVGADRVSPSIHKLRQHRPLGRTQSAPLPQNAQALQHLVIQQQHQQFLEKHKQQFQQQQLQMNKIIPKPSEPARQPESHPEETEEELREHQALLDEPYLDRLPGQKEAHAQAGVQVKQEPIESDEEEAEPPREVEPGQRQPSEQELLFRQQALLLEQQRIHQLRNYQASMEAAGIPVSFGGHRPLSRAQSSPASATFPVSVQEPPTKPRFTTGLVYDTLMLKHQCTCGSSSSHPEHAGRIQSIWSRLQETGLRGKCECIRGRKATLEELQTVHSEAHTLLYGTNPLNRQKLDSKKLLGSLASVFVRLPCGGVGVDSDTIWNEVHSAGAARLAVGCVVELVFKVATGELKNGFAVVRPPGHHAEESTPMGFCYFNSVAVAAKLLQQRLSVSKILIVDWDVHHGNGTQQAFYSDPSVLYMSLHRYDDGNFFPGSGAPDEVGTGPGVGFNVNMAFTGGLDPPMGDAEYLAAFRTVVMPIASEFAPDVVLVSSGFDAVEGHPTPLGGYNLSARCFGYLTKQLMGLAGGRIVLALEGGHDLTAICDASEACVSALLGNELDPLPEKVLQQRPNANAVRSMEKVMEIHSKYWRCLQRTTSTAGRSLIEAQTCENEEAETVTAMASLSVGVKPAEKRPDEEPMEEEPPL
Protocol: as §5

Chain of HDAC9 (Q9UKV0 whole entry): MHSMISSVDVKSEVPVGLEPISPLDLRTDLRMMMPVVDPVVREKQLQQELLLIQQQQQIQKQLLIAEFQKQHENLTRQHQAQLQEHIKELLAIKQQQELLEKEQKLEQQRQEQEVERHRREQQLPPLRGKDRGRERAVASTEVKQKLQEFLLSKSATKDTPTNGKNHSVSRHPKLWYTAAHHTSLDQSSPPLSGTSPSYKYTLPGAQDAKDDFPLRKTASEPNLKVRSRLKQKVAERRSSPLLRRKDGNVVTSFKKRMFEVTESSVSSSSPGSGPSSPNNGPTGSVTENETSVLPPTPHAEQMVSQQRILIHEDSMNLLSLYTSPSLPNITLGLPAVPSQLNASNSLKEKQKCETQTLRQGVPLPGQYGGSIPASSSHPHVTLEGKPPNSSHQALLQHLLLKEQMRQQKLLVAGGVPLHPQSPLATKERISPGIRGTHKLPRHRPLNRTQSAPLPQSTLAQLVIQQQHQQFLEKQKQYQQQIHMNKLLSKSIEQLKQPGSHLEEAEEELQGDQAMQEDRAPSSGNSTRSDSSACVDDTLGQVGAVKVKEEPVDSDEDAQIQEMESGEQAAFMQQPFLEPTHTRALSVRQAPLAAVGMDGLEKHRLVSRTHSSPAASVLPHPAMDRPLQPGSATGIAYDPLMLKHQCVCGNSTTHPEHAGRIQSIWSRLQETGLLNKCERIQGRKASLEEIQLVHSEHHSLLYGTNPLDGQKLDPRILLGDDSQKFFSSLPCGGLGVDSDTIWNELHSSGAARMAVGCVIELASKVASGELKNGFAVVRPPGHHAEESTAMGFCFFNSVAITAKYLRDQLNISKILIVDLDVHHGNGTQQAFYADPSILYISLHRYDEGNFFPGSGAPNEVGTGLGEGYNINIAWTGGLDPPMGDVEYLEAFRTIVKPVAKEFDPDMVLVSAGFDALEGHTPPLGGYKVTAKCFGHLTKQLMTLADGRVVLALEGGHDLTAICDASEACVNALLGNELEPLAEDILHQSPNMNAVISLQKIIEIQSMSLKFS

## Cc1ccc(/C=C/CC(=O)Nc2ccc(C(=O)Nc3ccc(F)cc3N)nc2)cn1 [GNTbm-02, 5-((E)-4-(6-methylpyridin-3-yl)but-3-enamido)-N-(2-amino-4-fluorophenyl)pyridine-2-carboxamide]
[1]
  IC50: > 10 µM
[1]; 10 μM
  HDAC9 Inhibition at 10 μM: not inhibited; also recorded: No Inhibition at 10 μM
[2]
  IC50: > 10 µM
[2]; 10 μM
  HDAC5 Inhibition at 10 μM: not inhibited; also recorded: No Inhibition at 10 μM
[3]
  IC50: 1.69 ± 0.008 µM
[4]
  IC50: 13.5 ± 1.78 µM
[5]
  IC50: 2.51 ± 0.11 µM
[6]
  IC50: 4.31 ± 0.16 µM
[7]
  IC50: 0.91 µM
[8]
  IC50: > 10 µM
[8]; 10 μM
  HDAC11 Inhibition at 10 μM: not inhibited; also recorded: No Inhibition at 10 μM
[9]
  IC50: 4.01 ± 0.49 µM
[10]
  IC50: 2 ± 0.015 µM
[11]
  IC50: > 10 µM
[11]; 10 μM
  HDAC6 Inhibition at 10 μM: not inhibited; also recorded: No Inhibition at 10 μM
[12]
  IC50: 0.73 µM
[13]
  IC50: > 10 µM
[13]; 10 μM
  HDAC8 Inhibition at 10 μM: not inhibited; also recorded: No Inhibition at 10 μM
[14]
  Inhibition of cell proliferation: significantly inhibited cell proliferation
[15]
  Inhibition of cell proliferation: significantly inhibiting cell proliferation
[16]
  Inhibition of cell proliferation: inhibitory effect was more obvious for SW48 cells
[17]
  IC50: 0.39 µM
[18]; 2-72 h
  Histone H3 acetylation, time course: potently induced histone H3 acetylation in MDA-MB-231 cell after 6 h treatment
[18]; 24 h
  Level of histone H3 acetylation: significantly increased the level of histone H3 acetylation
[19]
  Histone H3 acetylation, time course: potently induced histone H3 acetylation level in SW48 cells after 6 h treatment
[20]
  Cell cycle arrest: significantly induced cell cycle arrest of M10 cells in the G2/M phase
  Cells in G2/M phase: 16.2%
[21]
  Cell cycle arrest: significantly induced cell cycle arrest in G0/G1 phase
[22]
  Cell cycle arrest: significantly induced cell cycle arrest in G0/G1 phase
  Cells in G0/G1 phase: 76.9%
[23]
  IC50: > 10 µM
[23]; 10 μM
  HDAC4 Inhibition at 10 μM: not inhibited; also recorded: No Inhibition at 10 μM
